# Measured values: patent US20240000806A1, “METHODS AND MATERIALS FOR INHIBITING CB1 ACTIVITY” (University of Pittsburgh - Of the Commonwealth System of …, priority 2020, published 2024)
# Molecular target: CB1 (CNR1) (Homo sapiens, UniProt P21554)
# Assay: cAMP CNR1 Hunter cell line antagonist assay (CB1 assay)
# Assay type: cell-based
# Settings: antagonist mode, cAMP CNR1 Hunter cells, EC80 agonist; read-out: CB1 assay, Efficacy (IC50)
# How it was run: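 Antagonist mode in CNR1 Hunter cells: compound preincubated 30 min at 37 °C, then EC80 agonist for 30 min at 37 °C. cAMP measured by enzyme-fragment complementation chemiluminescence after lysis (1 h) and detection (3 h, room temperature); IC50 fitted from the dose response.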
# Sequence of CB1 (CNR1) (P21554 whole entry): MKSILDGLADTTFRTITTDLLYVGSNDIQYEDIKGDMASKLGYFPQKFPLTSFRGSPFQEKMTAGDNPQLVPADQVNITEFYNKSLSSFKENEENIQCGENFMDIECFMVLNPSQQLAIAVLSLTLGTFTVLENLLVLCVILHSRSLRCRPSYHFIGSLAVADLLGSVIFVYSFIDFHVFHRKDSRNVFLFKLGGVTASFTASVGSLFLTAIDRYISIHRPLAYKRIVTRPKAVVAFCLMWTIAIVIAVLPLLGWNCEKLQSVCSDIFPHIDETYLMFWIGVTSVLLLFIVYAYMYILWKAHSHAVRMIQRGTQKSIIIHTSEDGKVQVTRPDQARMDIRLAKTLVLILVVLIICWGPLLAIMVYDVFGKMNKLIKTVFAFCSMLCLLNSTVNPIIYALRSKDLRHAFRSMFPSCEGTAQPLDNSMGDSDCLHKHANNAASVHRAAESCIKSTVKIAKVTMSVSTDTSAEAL
row,IC50 [µM],Compound
1,≥ 25,CC1Oc2cc(S(=O)(=O)Nc3ccc(C(C)C)cc3)c(Br)cc2N(C)C1=O (stereo not shown) [BC19794]
2,≥ 25,CCC1Oc2c(cc(Br)cc2S(=O)(=O)Nc2ccc(C)c(Cl)c2)N(C)C1=O (stereo not shown) [BC19937]
3,1 to 25,CCC1Oc2c(cc(Cl)cc2S(=O)(=O)Nc2ccc(F)cc2Cl)NC1=O (stereo not shown) [BC19756]
4,1 to 25,CCC1Oc2c(cc(Br)cc2S(=O)(=O)Nc2ccc(F)c(F)c2)N(C)C1=O (stereo not shown) [BC19925]
5,1 to 25,CC(C)CC1Oc2c(cc(Br)cc2S(=O)(=O)Nc2ccc(F)cc2)NC1=O (stereo not shown) [BC19781]
6,1 to 25,CC1Oc2cc(S(=O)(=O)Nc3ccc(F)cc3F)c(Cl)cc2NC1=O (stereo not shown) [BC19709]
7,≥ 25,O=C1CCOc2c(cc(Br)cc2S(=O)(=O)Nc2cccc(Cl)c2)N1 [BC19650]
8,≥ 25,Cc1ccc(NS(=O)(=O)c2cc3c(cc2Br)N(C)C(=O)C(C)O3)cc1F (stereo not shown) [BC19786]
9,≥ 25,O=C1CCOc2c(cc(Br)cc2S(=O)(=O)Nc2cccc(F)c2)N1 [BC19649]

# The remaining lines, values behind:
row,Compound,IC50 [µM]
1,CCC1Oc2cc(S(=O)(=O)Nc3cccc(F)c3)c(Br)cc2NC1=O (stereo not shown) [BC19220],≥ 25
2,CCC1Oc2cc(S(=O)(=O)Nc3ccc(OC)cc3)c(Cl)cc2NC1=O (stereo not shown) [BC19211],1 to 25
3,O=C1NCCOc2c1cc(Br)cc2S(=O)(=O)Nc1cccc(Cl)c1 [BC19611],≥ 25
4,CCC1Oc2cc(S(=O)(=O)Nc3ccc(C)cc3)c(Br)cc2NC1=O (stereo not shown) [BC19224],≥ 25
5,CCS(=O)(=O)c1cc2c(c(S(=O)(=O)Nc3ccc(C#N)cc3)c1)OCC(=O)N2 [BC19548],≥ 25
6,Cc1ccc(NS(=O)(=O)c2cc(Br)cc3c2OC(C)C(=O)N3)cc1Cl (stereo not shown) [BC19225],≥ 25
7,CCC1Oc2c(cc(Br)cc2S(=O)(=O)NCc2ccccc2)NC1=O (stereo not shown) [BC19230],≥ 25
8,CCc1ccc(NS(=O)(=O)c2cc(Br)cc3c2OCC(=O)N3)cc1 [BC19179],1 to 25
9,CCc1cccc(NS(=O)(=O)c2cc3c(cc2Br)NC(=O)C(C)O3)c1 (stereo not shown) [BC19283],1 to 25
10,CC1Oc2c(cc(Br)cc2S(=O)(=O)NCc2ccc(F)cc2F)NC1=O (stereo not shown) [BC19362],≥ 25
